Reference: patent US20150133341A1, “Intra-Operative Cancer Diagnosis Based on a Hyperpolarized Marker” (ALBEDA INNOVATIONS APS, priority 2012, published 2015)

Biological target: T1, CE-2 in lysed human breast cancer cells (MCF-7) (Homo sapiens, UniProt O00748)
T1 construct: endogenous in cells; host or cells: MCF-7 (sonicated lysate)
T1 sequence (O00748 27-559): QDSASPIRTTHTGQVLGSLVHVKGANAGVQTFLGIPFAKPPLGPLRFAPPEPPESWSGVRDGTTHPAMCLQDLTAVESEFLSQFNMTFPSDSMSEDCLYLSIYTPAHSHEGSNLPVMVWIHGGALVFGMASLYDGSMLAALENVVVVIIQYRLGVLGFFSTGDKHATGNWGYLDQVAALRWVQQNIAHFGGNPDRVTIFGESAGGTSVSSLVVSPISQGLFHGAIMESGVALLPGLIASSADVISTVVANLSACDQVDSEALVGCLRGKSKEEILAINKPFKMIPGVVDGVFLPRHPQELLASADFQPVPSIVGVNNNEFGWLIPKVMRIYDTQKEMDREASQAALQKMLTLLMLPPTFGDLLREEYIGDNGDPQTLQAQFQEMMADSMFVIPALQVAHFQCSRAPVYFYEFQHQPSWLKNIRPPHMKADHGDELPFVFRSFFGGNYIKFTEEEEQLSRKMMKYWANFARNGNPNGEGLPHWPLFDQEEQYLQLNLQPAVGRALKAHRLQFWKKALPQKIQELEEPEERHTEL
Experiment: CE-2 activity on acetate esters in lysed MCF-7 cells, 1H NMR
Type: biochemical
Details: for k: 5 million lysed MCF-7 cells
Procedure: Different classes of short chain esters, fulfilling the requirements for the hyperpolarization technique (stable, soluble, low molecular weight compounds (<400 Da), were evaluated as substrates for carboxyl esterases with the aim to identify esters as similar or better substrates for carboxyl esterases than 1,3-^13C2 ethyl acetoacetate. In most human cell types, including a wide range of cancer cells and lymphocytes, the activity of carboxyl esterase is dominated by the activities of isoforms 1 and 2 (CE-1 and CE-2). To measure exclusively the hydrolysis of carboxyl esterase from the CE-1 isoform, an isolated enzyme from porcine liver was applied. To measure almost exclusively the contribution of carboxyl esterase activity from the CE-2 isoform, human breast cancer cells (MCF-7) were employed. These cells are known from literature to express CE-2 but not to express CE-1 (Byun et al, 2008, Cancer letters 266:238-48). A group of esters was investigated as substrates for CE-1, which contained different structural features. […] Also esters with large alcohol groups and small acid groups were investigated. In this group, the acid part of the molecule was always acetate and different structural properties of the alcohol were investigated. These consisted of esters of un-substituted alcohols (examples ethyl acetate and butyl acetate), esters of branched chain alcohols (examples t-butyl acetate, ethyl 3-acetoxy butanoate and 2-acetoxy propionate), esters of aromatic alcohols (example benzyl acetate), esters of diols (example ethyleneglycol diacetate), esters of triols (example triacetin). Esters of alpha-keto acids were too unstable to be investigated in this assay. Esters of larger alcohols are not water soluble and therefore not relevant substrates for the purpose of the invention. Similarly, a group of esters which contained different structural features was investigated as substrates for CE-2. CE-2 substrates are described in the literature to consist of a small acid group and a larger alcohol group. All included esters were acetate esters (i.e. esters of acetic acid) in the interest of keeping the acid moiety the smallest possible. The acetate esters measured for CE-2 activity were therefore the same as those measured in the second group of possible substrates for CE-1. The CE-2 experiments were performed with lysed breast cancer cells (MCF-7). MCF-7 cells were grown in RPMI medium with 10% FBS and antibiotics. They were at confluence harvested by trypsination and washed once with 5 ml PBS. They were spun down and resuspended in PBS to a concentration of 20 mill. cells/ml. The cells were hereafter sonicated on ice (50% amplitude, 1 min, 3 sec pulse). 250 μl sonicated cell suspension was mixed with 250 μl 400 mM phosphate buffer pH 7.3. […] The substrate was added (50 μl, 60 mM) and the tube turned for mixing before it was inserted into the spectrometer. An initial spectrum was acquired and the sample was hereafter placed at 37° C. for 1 hour in a water bath. The sample was again inserted into the magnet and a second spectrum was recorded. The data was analysed with MNOVA software and measured as percentage conversion of substrate calculated to account for the amount of substrate converted over 60 min. The numbers are given in μmol/hour.

Row | Structure (SMILES) | k (μmol/min), acetate ester (hydrolysis of the acetate ester function, lysed MCF-7 cells, 37° C., 1 hour) | hydrolysis by CE-2, in words (lysed MCF-7 cells) | k (37° C., 1 hour) | hydrolysis by CE-2, in words (lysed MCF-7 cells, listed as benzyl acetate)
1 | CCOC(=O)CC(C)OC(C)=O (stereo not shown) [ethyl 3-acetoxy butanoate] | 0.18 µmol/min | hydrolysed to a similar extent | – | –
2 | CC(=O)OCc1ccccc1 [Benzyl acetate] | – | hydrolysed particularly fast | 1.05 µmol/min | the best
3 | CC(=O)OCC(COC(C)=O)OC(C)=O [Tri-acetin] | – | hydrolysed to a similar extent | 0.27 µmol/min | –
